Source: US20100292210A1, “Novel Compounds for A-Beta-Related Pathologies” (AstraZeneca AB, priority 2009, published 2010)

The compounds below were run on Aβ42 release (assay: Aβ42 release from HEK cells stably expressing APPswe, Meso Scale Discovery electrochemiluminescence assay). Conditions: Homo sapiens, HEK293; HEK cell line stably expressing APPswe; 4-6 h incubation with test compound; Aβ42 secreted to cell medium; read-out: pIC50 values of Aβ42 release (converted).
Type: cell-based
Procedure: The level of activity of the compounds on Aβ formation was tested using the following method:
Compounds were diluted in 100% DMSO and stored at […] prior to use. Human Embryonic Kidney (HEK) cell line stably expressing APP with the Swedish mutation (APPswe) were cultured using Dulbecco's Modified Eagles medium (DMEM) supplied with […] glucose, Na-pyruvate and GlutaMAX with 10% FBS, 100 U/ml penicillin-streptomycin (PEST) respectively, 1×non-essential amino acids (NEAA), […], 100 μg/ml Zeocine. Cells at about 80% confluence were washed with PBS, detached from culture flasks using 1×Trypsin/EDTA diluted in PBS, re-suspended in cell media and plated in 384-well poly-d-lysine coated cell culture plates at about 10000-15000 cells/well, in 25 μL cell media. Optionally, cryo-preserved cells (frozen and stored at −140° C. in 90% cell media and 10% DMSO) were thawed, washed and plated as above. Next the cells were incubated for 15-24 h at 37° C. and 5% CO2, after which cell medium was changed. Fresh medium containing test compound diluted ×200 from prepared compound plate was added to the cells before further incubation for 4-6 hours at 37° C. and 5% CO2. After incubation with test compound the amount of Aβ peptides, including Aβ42, Aβ40, Aβ39, Aβ38 and Aβ37, secreted to cell medium was analyzed using the electrochemiluminescence assay technology from Meso Scale Discovery Technology, in combination with specific antibodies raised against the different Aβ peptides. Potential cytotoxic effects of the compounds were usually assayed by measuring the ATP content (ViaLight) from cell lysate.

Compared with COc1nc(Nc2ccc3c(n2)OC(c2cccc(C)n2)CN(C)C3)ccc1-c1cnn(C)c1 (centres unmarked) [Example 53, N-(6-Methoxy-5-(1-methyl-1H-pyrazol-4-yl)pyridin-2-yl)-4-methyl-2-(6-methylpyridin-2-yl)-2,3,4,5-tetrahydropyrido[3,2-f][1,4]oxazepin-8-amine], Cc1cccc(C2CN(C)Cc3ccc(Nc4ccc(-c5cnn(C)c5)nc4)nc3O2)n1 (centres unmarked) [Example 54, 4-Methyl-N-(6-(1-methyl-1H-pyrazol-4-yl)pyridin-3-yl)-2-(6-methylpyridin-2-yl)-2,3,4,5-tetrahydropyrido[3,2-f][1,4]oxazepin-8-amine] is higher in IC50: 0.0501 µM for the first, over 3.16 µM for the second.

Going from COc1cc(Nc2ccc3c(n2)O[C@H](c2ccccc2)CNC3)ccc1-n1cnc(C)c1 [Example 55, (R)—N-(3-Methoxy-4-(4-methyl-1H-imidazol-1-yl)phenyl)-2-phenyl-2,3,4,5-tetrahydropyrido[3,2-f][1,4]oxazepin-8-amine] to COc1nc(Nc2ccc3c(n2)O[C@H](c2ccccc2)CNC3)ccc1-c1cnn(C)c1 [Example 56, (R)—N-(6-Methoxy-5-(1-methyl-1H-pyrazol-4-yl)pyridin-2-yl)-2-phenyl-2,3,4,5-tetrahydropyrido[3,2-f][1,4]oxazepin-8-amine], the IC50 falls from 0.0316 µM to 0.01 µM (3.2-fold).

First: Cn1cc(-c2ccc(Nc3ccc4c(n3)O[C@H](c3ccccc3)CNC4)nc2)cn1 [Example 57, (R)—N-(5-(1-Methyl-1H-pyrazol-4-yl)pyridin-2-yl)-2-phenyl-2,3,4,5-tetrahydropyrido[3,2-f][1,4]oxazepin-8-amine]
Second: CN1Cc2ccc(Nc3ccc(-c4cnn(C)c4)nc3)nc2O[C@H](c2ccccc2)C1 [Example 58, (R)-4-Methyl-N-(6-(1-methyl-1H-pyrazol-4-yl)pyridin-3-yl)-2-phenyl-2,3,4,5-tetrahydropyrido[3,2-f][1,4]oxazepin-8-amine]
The IC50 of the first is 2.5-fold lower: 0.126 µM for the first, 0.316 µM for the second.

Compared with CN1Cc2ccc(Nc3ccc(-c4cnn(C)c4)cc3)nc2O[C@H](c2ccccc2)C1 [Example 59, (R)-4-Methyl-N-(4-(1-methyl-1H-pyrazol-4-yl)phenyl)-2-phenyl-2,3,4,5-tetrahydropyrido[3,2-f][1,4]oxazepin-8-amine], CN1Cc2ccc(Nc3ccc(-n4ccnc4CO)cc3)nc2O[C@H](c2ccccc2)C1 [Example 60, (R)-(1-(4-(4-Methyl-2-phenyl-2,3,4,5-tetrahydropyrido[3,2-f][1,4]oxazepin-8-ylamino)phenyl)-1H-imidazol-2-yl)methanol] is 2.5-fold lower in IC50: 0.0794 µM for the first, 0.0316 µM for the second.
